pIC50: −log10 of the molar value.
Legend:
Format in all cases: cell-based, human
MYB [1] = experiment: HiBiT protein abundance assay, MYB; conditions: Homo sapiens, K562, 24 h, modified K562 cells
Method: (§1) Compounds described herein were used to screen for effects on quantitative protein abundance using a HiBit assay system (Promega). Quantitative protein abundance was determined by measuring the protein levels of HiBit-tagged protein targets expressed in cell culture via luminescence using the Nano-Glo HiBiT Lytic Detection System, which uses a split complementation assay format to reconstitute NanoBiT enzyme to generate a luminescent signal. A protein abundance assay was developed such that endogenous protein targets could be modified with the HiBiT peptide tag and their abundance could be assessed after compound treatment. Briefly, K562 cell lines containing a HiBiT-modification were treated with various compounds described herein (e.g., compounds of Formulas (I), (II), or (III)). After treatment for 24 hours, the protein abundance of a specific target was determined by measuring luminescence.
(§2) Cells were maintained in IMIDM with 10% FBS. Before the assay, cells were diluted with […] growth media (IMIDM+[…] media) and were seeded in a 384-well plate at a density of 10000 cells/well (for each cell line listed in Table 12). Each compound was prepared as a 10-point 3-fold serial dilution in DMSO with the top dose at a final concentration of 10 μM in the well. Unmodified K562 cells were added at the previously specified density with DMSO to serve as an assay baseline and positive control (PC) and DMSO only with the respective modified cell lines was added to the negative control (NC) columns. Final DMSO concentration was kept at or below 0.25%. Treated cell plates were placed in an incubator at 37° C. with 5% CO2 for 24 hours. After 24 hours, 25 μL of Complete HiBit Lytic reagent was added to each well at room temperature (e.g. one plate requiring 10 mL Lytic Buffer, 100 μL LgBiT Protein, 200 μL Lytic Substrate), shaken for 5 minutes at 600 RPM, then left to sit for 10 minutes for signal to stabilize before reading on a Spark Cyto plate reader (Tecan) with a 500 ms measurement time.
(§3) To determine compound effects on protein abundance of each target in Table 12, the percent response for each respective cell line was calculated at each compound concentration as follows:
(§4) For the normalized response at each concentration, a four-parameter logistical regression was fit to the data and the response was interpolated at the 50% value to determine a concentration for protein abundance at 50% (IC50) the untreated control.

HTT = experiment: HiBiT protein abundance assay, HTT; conditions: modified K562 cells
Method: as §1, §2, §3, §4

Target C = experiment: HiBiT protein abundance assay, Target C; conditions: Homo sapiens, K562, 24 h, modified K562 cells
Method: • Promega Nano-Glo HiBiT Lytic Detection System (cat #N3030) • Coming 384-well TC-treated microplates (cat #3570) • Synthego Engineered Cells Knock-In Clones
as §2, §3, §4

MYB [2] = experiment: Splicing RT-qPCR assay, MYB mRNA canonical junction (CJ) and alternative junction (AJ); conditions: for AC50: increase in AJ mRNA
Method: Compounds described herein were used to modulate RNA transcript abundance in cells. The expression of a target mRNA was measured by detecting the formation of an exon-exon junction in the canonical transcript (CJ). A compound mediated exon-inclusion event was detected by observing an increase in formation of a new junction with an alternative exon (AJ). Real-time qPCR assays were used to detect these splicing switches and interrogate the potency of various compounds towards different target genes. A high-throughput real time quantitative PCR (RT-qPCR) assay was developed to measure these two isoforms of the mRNA (CJ and AJ) for exemplary genes, such as HTT, SMN2, and MYB, together with a control housekeeping gene, GAPDH or GUSB or PPIA, used for normalization. Briefly, the A673 or K562 cell line was treated with various compounds described herein (e.g., compounds of Formula (I)). After treatment, the levels of the HTT, MYB, or SMN2 mRNA targets were determined from each sample of cell lysate by cDNA synthesis followed by qPCR.
The A673 cell line was cultured in DMEM with 10% FBS. Cells were diluted with full growth media and plated in a 96-well plate (15,000 cells in 100 ul media per well). The plate was incubated at 37° C. with 5% CO2 for 24 hours to allow cells to adhere. An 11-point 3-fold serial dilution of the compounds was made in DMSO then diluted in media in an intermediate plate. Compounds were transferred from the intermediate plate to the cell plate with the top dose at a final concentration of 10 uM in the well. Final DMSO concentration was kept at or below 0.25%. The cell plate was returned to the incubator at 37° C. with 5% CO2 for an additional 24 hours.
The K562 cell line was cultured in IMDM with 10% FBS. For K562, cells were diluted with full growth media and plated in either a 96-well plate (50,000 cells in 50 uL media per well) or a 384-well plate (8,000-40,000 cells in 45 uL media per well). An 11-point 3-fold serial dilution of the compounds were made in DMSO then diluted in media in an intermediate plate. Compound was transferred from the intermediate plate to the cell plate with the top dose at a final concentration of 10 uM in the well. Final DMSO concentration was kept at or below 0.25%. Final volume was 100 uL for 96-well plate and 50 uL for 384-well plate. The cell plate was then placed in an incubator at 37° C. with 5% CO2 for 24 hours.
The cells were then gently washed with 50 uL-100 uL cold PBS before proceeding to addition of lysis buffer. 30 uL-50 μL of room temperature lysis buffer with DNAse I (and optionally RNAsin) was added to each well. Cells were shaken/mixed thoroughly at room temperature for 5-10 minutes for lysis to take place and then 3 uL-5 μL of room temperature stop solution was added and wells were shaken/mixed again. After 2-5 minutes, the cell lysate plate was transferred to ice for RT-qPCR reaction setup. The lysates could also be frozen at −80° C. for later use.
In some cases, a direct lysis buffer was used. An appropriate volume of 3× lysis buffer (10 mM Tris, 150 mM NaCl, 1.5%-2.5% Igepal and 0.1-1 U/uL RNAsin, pH 7.4) was directly added to either K562 or A673 cells in media and mixed by pipetting 3 times. The plates were then incubated at room temperature with shaking/rocking for 20-50 minutes to allow for lysis to take place. After this time, the cell lysate plate was transferred to ice to set up for the RT-qPCR reactions. The lysates could also be frozen at −80° C. for later use.
To set up 10 uL RT-qPCR reactions, cell lysates were transferred to 384-well qPCR plates containing the master mix according to the table below. The plates were sealed, gently vortexed, and spun down before the run. The volumes were adjusted accordingly in some instances where the reaction was carried in 20 μL. The table below summarizes the components of the RT-qPCR reactions:
The RT-qPCR reaction was performed using a QuantStudio (ThermoFisher) under the following fast cycling conditions. […]

[3] = Homo sapiens, K562, 24 h, Table 13A
[4] = Homo sapiens, K562, 24 h, Table 13B
[5] = Homo sapiens, 24 h, decrease in CJ mRNA, A673 or K562 cells, 24 hours treatment, RT-qPCR, read-out: MYB CJ IC50
[6] = Homo sapiens, 24 h, A673 or K562 cells, 24 hours treatment, RT-qPCR
[7] = Homo sapiens, RT-qPCR panel, canonical junction mRNA, compound concentration having 50% response in CJ decrease, read-out: MYB IC50 (decrease in CJ mRNA levels)

Compound	pIC50 (MYB [1]; Table 13A)	pIC50 (HTT; [3])	pIC50 (Target C; Table 13A)	further results
Cc1cc(-c2ccc(-c3ccc(N(C)[C@@H]4C[C@H]5CC[C@@H](C4)N5)nn3)c3[nH]ncc23)cnn1 [Compound 383, (exo)-N-methyl-N-{6-[4-(6-methylpyridazin-4-yl)-1H-indazol-7-yl]pyridazin-3-yl}-8-azabicyclo[3.2.1]octan-3-amine]	5.00 to 6.00	5.00 to 6.00	5.00 to 6.00	–
CN(c1ccc(-c2ccc(-n3cccn3)c(=O)[nH]2)nn1)[C@@H]1C[C@H]2CC[C@@H](C1)N2 [Compound 905]	–	–	–	pIC50 (MYB [1]; Table 13B): 5.00 to 6.00; pIC50 (HTT; [4]): 6.00 to 7.00; pIC50 (Target C; Table 13B): 6.00 to 7.00
CN(c1ccc(-c2ccc(-c3cn[nH]c3)c3cc[nH]c23)nn1)[C@@H]1C[C@H]2CC[C@@H](C1)N2 [Compound 112]	5.00 to 6.00	5.00 to 6.00	5.00 to 6.00	pIC50 (MYB [2]; [5]): 5.00 to 6.00; AC50 (MYB [2]; [6]): 1 to 10 µM; pIC50 (MYB [2]; [7]): 5.00 to 6.00
C[C@@H]1C[C@H](N(C)c2ccc(-c3ccc(-c4cn[nH]c4)c4c3NC(=O)C4)nn2)CCN1 [Compound 121]	< 5.00	< 5.00	< 5.00	pIC50 (MYB [2]; [5]): < 5.00; AC50 (MYB [2]; [6]): > 10 µM; pIC50 (MYB [2]; [7]): < 5.00
CN(c1ccc(-c2ccc(-c3cn[nH]c3)c(=O)[nH]2)nn1)[C@@H]1C[C@H]2CC[C@@H](C1)N2 [Compound 904]	–	–	–	pIC50 (MYB [1]; Table 13B): < 5.00; pIC50 (HTT; [4]): < 5.00; pIC50 (Target C; Table 13B): < 5.00
c1nc2c(-c3cn[nH]c3)ccc(-c3cnc(N4CCN[C@H](C5CC5)C4)nn3)c2s1 [Compound 553]	–	–	–	pIC50 (MYB [2]; RT-qPCR panel, canonical junction mRNA, compound concentration having 50% response in CJ decrease, read-out: MYB IC50 (decrease in CJ mRNA levels)): 5.00 to 6.00; pIC50 (HTT; Table 13A, 24 hours): 5.00 to 6.00
CN(c1ccc(-c2ccc(-c3cn[nH]c3)c3c2NC(=O)C3)nn1)[C@@H]1C[C@H]2CC[C@@H](C1)N2 [Compound 123]	< 5.00	< 5.00	< 5.00	–
CC1(C)CC(Oc2ccc(-c3ccc(-n4cccn4)c4cn[nH]c34)nn2)CC(C)(C)N1 [Compound 151]	6.00 to 7.00	6.00 to 7.00	6.00 to 7.00	–
C[C@@H]1C[C@@H](N(C)c2ccc(-c3ccc(-c4cn[nH]c4)c4cc[nH]c34)nn2)CCN1 [Compound 107]	5.00 to 6.00	5.00 to 6.00	5.00 to 6.00	–
[2H]C([2H])([2H])N(c1ccc(-c2ccc(-c3cn[nH]c3)c3cn[nH]c23)nn1)[C@@H]1C[C@H]2CC[C@@H](C1)N2 [Compound 299]	> 7.00	> 7.00	> 7.00	–
C[C@@H]1C[C@@H](N(C)c2ccc(-c3ccc(-n4cccn4)c4cc[nH]c34)nn2)CCN1 [Compound 110]	5.00 to 6.00	5.00 to 6.00	5.00 to 6.00	–
